These results are taken from patent US9115122B2, “Non-ATP dependent inhibitors of extracellular signal-regulated kinase (ERK)” (UNIVERSITY OF MARYLAND, BALTIMORE, priority 2012, dated 2015).

A value given as a limit tells only on which side of the number the result lay.

Test [1] concerns Jurkat T-cell leukemia cells. The test can be described thus: Cell proliferation, fluorescent Cell Titer Blue Assay (Example 1). The test is classed as cell-based. The following applies: Homo sapiens, 48 hours. As for the experimental part:
(§1) FIG. 5. Dose dependent inhibition of cancer cell proliferation in vitro by SF-3-026 and analogs. A375 (closes circles), RPM17951 (closed squares), HeLa (open circles), or Jurkat (open squares) cells were treated for 48 hours with indicated concentration of (a) SF-3-026, (b) SF-2-027, (c) SF-2-029, or (d) SF-2-030 and cell proliferation was assessed by the fluorescent Cell Titer Blue Assay. The data were reproduced in 3 separate experiments.
(§2) Cells were seeded at 25,000 cells/well in 96-well plate and cultured overnight. Cells were treated for 24 hours with various concentrations of compounds and cell viability or caspase 3/7 activity were measured according to manufacturer's instructions using the fluorescent Cell Titer Blue Assay (Promega) or luminescent Caspase 3/7 Glo Assay (Promega).
(§3) It was next determined whether inhibition of AP-1 proteins by SF-3-026 and analogs affected the proliferation of cancer cells driven by mutations that constitutively activate the ERK1/2 pathway. For these experiments, A375 and RPMI7951 melanoma cells, which have a valine to glutamate mutation on residue 600 in BRaf that causes constitutive ERK1/2 activation, were chosen. Moreover, RPMI7951 cells are resistant to clinically used BRaf inhibitors due to overexpression of MAP3K8 (the gene encoding COT/Tp12) that re-activates ERK1/2 signaling. Both melanoma cells lines were treated with varying doses of SF-3-026 or analogs and cell viability was compared to HeLa cervical carcinoma and Jurkat T-cell leukemia cells, which are p53 defective but contain no known activating mutations in the ERK1/2 pathway.

The subject of test [2] is HeLa cervical carcinoma cells. The test is described as above. The test is classed as cell-based. The following applies: Homo sapiens, 48 hours. As for the experimental part: as §1, §2, §3
Another test concerns RPMI7951 melanoma cells. Described as above. The test is classed as cell-based. The following applies: Homo sapiens, RPMI-7951; 48 hours. As for the experimental part: as §1, §2, §3
For test [3], the system named is A375 melanoma cells. The test is described as above. The test is classed as cell-based. The following applies: Homo sapiens, A-375; 48 hours. The procedure:
as §1, §2, §3

In test [4] the test system is A375 melanoma cells. The test can be described thus: Caspase 3/7 Glo Assay. The test is classed as cell-based. The following applies: varying doses, 24 hours. As for the experimental part: FIG. 6. SF-3-030 induces growth inhibition and apoptosis in A375 melanoma cells. A375 were seeded in a 96-well plate and incubated for 18-20 hours. Cells were treated with varying concentrations of SF-3-030 and allowed to incubate for an additional 24 hours. Cell viability was measured using the fluorescent Cell Titer Blue Assay and caspase 3/7 activity was measured using the luminescent Caspase 3/7 Glo Assay. Data represent the average of two experiments performed in duplicate.
as §2
(§4) To test whether the inhibition of cell proliferation was due to an apoptotic response, A375 and HeLa cells were treated with varying doses of SF-3-030 and cell viability along with caspase 3/7 activity was measured.

Test [5] concerns MEK1-induced AP-1 promoter activity. In words: AP-1 promoter luciferase assay, HeLa cells expressing active MEK1 mutant. The following applies: Homo sapiens, 4 hours, read-out: IC50 inhibition of MEK1-induced AP-1 promoter activity. The test is classed as cell-based. As for the experimental part: FIG. 4. Compound SF-3-026 and analogs inhibit SRE and AP-1 transcription factor function. (a) HeLa cells were transfected with constructs containing SRE or AP-1 promoters driving luciferase expression and then stimulated with EGF in the presence or absence of SF-3-026 for 4 hours followed by measurements of luciferase activity. Cells treated with U0126 were used as a positive inhibitor control. (b and c) HeLa cells were prepared and treated as in (a) with the indicated concentrations of SF-3-026 or analogs for 4 hours followed by the measurement of luciferase activity regulated by the SRE (b) or AP-1 (c) promoters. Data in (b and c) were normalized to EGF-only treatment and represent the mean and standard deviation from three independent experiments. (d) Compound SF-3-026 and analogs inhibit MEK1-induced AP-1 transcription factor function. HeLa cells were transfected with the AP-1 promoter construct and a constitutively active MEK1 mutant in the presence (10 μM) or absence of the MEK1/2 inhibitor (U0126) or an ATP-competitive ERK inhibitor (ERKi) for 4 hours followed by measurements of luciferase activity. (e) Cells expressing the AP-1 promoter and an active MEK-1 construct were treated with the indicated concentrations of SF-3-026 or analogs for 4 hours followed by the measurement of luciferase activity. Data in (e) were normalized to active MEK1-only treatment and represent the mean and standard deviation from three independent experiments.
HeLa cells were seeded in 24-well plates (40,000 cells/well) and incubated 18 hours to achieve ˜60-70% confluent. Cells were transfected with activator protein-1 (pAP1(PMA)-TA-Luc; Clontech) or the serum response element (pGL4.33-SRE; Promega) luciferase reporter plasmids (250 ng/well) using Lipofectamine™ (Invitrogen). After 16 hours, cells were pre-treated with varying amounts of compounds as indicated for 20 minutes, followed by stimulation with EGF (25 ng/mL) for 4.5 hr. In some experiments, cells transfected with the pAP1(PMA)-TA-Luc promoter and a constitutively active MEK1 mutant cDNA were treated with varying amounts of compounds during the last 4 hours of incubation. The luciferase activity in the cell extracts was determined with a Dual Luciferase Assay System (Promega) according to the manufacturer's instructions. Luciferase activities were monitored with a Lumat LB 9507 luminometer (Berthold Technology) and data were normalized to the amount of protein in each sample. […]

The test system of a further test is AP-1 promoter. In words: AP-1 promoter luciferase assay, EGF-stimulated HeLa cells (Example 1). The test is classed as cell-based. The following applies: Homo sapiens, EGF stimulation, 4 hours, read-out: IC50 inhibition of the AP-1 promoter. The procedure: FIG. 4. Compound SF-3-026 and analogs inhibit SRE and AP-1 transcription factor function. (a) HeLa cells were transfected with constructs containing SRE or AP-1 promoters driving luciferase expression and then stimulated with EGF in the presence or absence of SF-3-026 for 4 hours followed by measurements of luciferase activity. Cells treated with U0126 were used as a positive inhibitor control. (b and c) HeLa cells were prepared and treated as in (a) with the indicated concentrations of SF-3-026 or analogs for 4 hours followed by the measurement of luciferase activity regulated by the SRE (b) or AP-1 (c) promoters. Data in (b and c) were normalized to EGF-only treatment and represent the mean and standard deviation from three independent experiments. (d) Compound SF-3-026 and analogs inhibit MEK1-induced AP-1 transcription factor function. […]
HeLa cells were seeded in 24-well plates (40,000 cells/well) and incubated 18 hours to achieve ˜60-70% confluent. […] The luciferase activity in the cell extracts was determined with a Dual Luciferase Assay System (Promega) according to the manufacturer's instructions. Luciferase activities were monitored with a Lumat LB 9507 luminometer (Berthold Technology) and data were normalized to the amount of protein in each sample. […]

The test system of test [6] is c-Fos, Fra1, and FosB expression. The test can be described thus: Immunoblot of EGF-induced c-Fos, Fra1 and FosB expression in HeLa cells. The test is classed as cell-based. The following applies: EGF 25 ng/mL. The procedure:
FIG. 3. EGF-mediated induction of AP-1 proteins is inhibited by SF-3-026 and SF-3-030. (a) HeLa cells were treated for 10, 30, or 60 min. with EGF (25 ng/mL) in the presence of 50 μM SF-3-026 or 10 μM U0126. Protein lysates were immunoblotted for c-Fos, Fra1, FosB and FosB2. Phosphorylated ERK1/2 is not affected by SF-3-026 and α-tubulin expression is shown for a protein loading control. (b) Protein lysates from HeLa cells treated for 30 min. with EGF in the absence or presence of 10, 25, 50, or 100 μM of SF-3-026 or SF-3-030 were immunoblotted for c-Fos, Fra1, FosB, FosB2, as well as phosphorylated ERK1/2 and MEK1/2. Total ERK2 and α-tubulin expression are shown for protein loading controls. Data are representative of three independent experiments.
Analysis of protein expression levels, activity, and cell proliferation were done as previously described. […] Proteins were separated by SDS-PAGE, analyzed by immunoblotting, and detected using enhanced chemiluminescence (ECL, GE Healthcare, United Kingdom).
The reported half-life for c-Fos is ˜10 minutes and growth factor-mediated stabilization of c-Fos protein expression can be observed within 30-60 minutes, whereas stabilization of Fra1 protein is delayed due to AP-1 regulation of the Fra1 promoter. Thus, growth factor-mediated induction of c-Fos, Fra1, and FosB expression was evaluated following treatment with SF-3-026. […]

A further test has as its system HeLa cells. In words: Caspase 3/7 Glo Assay. The following applies: varying doses. The test is classed as cell-based. As for the experimental part:
as §2, §4

For test [7], the system named is A375 melanoma cells. In words: Proliferation of A375 melanoma cells (Example 3). The test is classed as cell-based. From the text: We examined the effects of these compounds on proliferation of A375 melanoma cells with BRaf mutations that require ERK activation for survival.
Moreover, 76.3 and TMZ also appeared to delay tumor growth in mice harboring A375 tumors indicative of prolonged survival (FIG. 13B).

The target in another test is ERK2 (Rattus norvegicus (Rat), UniProt P63086). In words: Binding of DRS compound to ERK2 (FIG. 10).
Chain of ERK2 (P63086 whole entry): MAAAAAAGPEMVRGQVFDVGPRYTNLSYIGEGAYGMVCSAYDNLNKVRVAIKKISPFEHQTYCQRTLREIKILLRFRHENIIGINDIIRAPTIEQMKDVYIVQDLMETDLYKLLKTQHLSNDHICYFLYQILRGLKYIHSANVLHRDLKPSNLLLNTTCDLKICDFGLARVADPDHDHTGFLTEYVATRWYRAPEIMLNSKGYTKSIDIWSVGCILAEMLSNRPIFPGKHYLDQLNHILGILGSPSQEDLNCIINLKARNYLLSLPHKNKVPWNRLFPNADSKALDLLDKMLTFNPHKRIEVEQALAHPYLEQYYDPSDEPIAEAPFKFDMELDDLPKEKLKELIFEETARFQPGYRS

As for `O=S1(=O)C=CC(OS(=O)(=O)c2ccc3c(c2)CC=CC3)C1` (centres unmarked) [SF-3-030], the 50% growth inhibitory concentration (GI50) in [1] is more than 50 µM; in test [2] it was 29 µM; in the test with RPMI7951 melanoma cells, 4.6 µM; with A375 melanoma cells [3], 7.1 µM. For the same molecule, in the test with A375 melanoma cells [4], the “caspase 3/7 activity in A375 cells” value is listed as “dose dependent increase”. Also, the IC50 in [5] is 5 to 10 µM; with AP-1 promoter, less than 10 µM. The “inhibition of EGF-induced c-Fos, Fra1, and FosB expression” value in [6] was “higher potency”. Moreover, the “caspase 3/7 activity in HeLa cells” value in the test on HeLa cells is “did not show increased caspase 3/7 activity”.

For `CCOc1ccc(/C=C2\SC(=O)N(CCNc3nc(Cl)nc(Cl)n3)C2=O)cc1` [SF-2-054], in the test on A375 melanoma cells [7], the “effect on A375 cell proliferation” value is “selective inhibition of A375 cells”. On ERK2, the “affinity (site 1 on ERK2)” value is reported as “high nM affinity”.
